Reference: patent US20230340012A1, “NATURAL AND SYNTHETIC COMPOUNDS FOR TREATING CANCER AND OTHER DISEASES” (PACIFIC ARROW LIMITED, priority 2009, published 2023)

Tested on: Jurkat cells
Assay: Agonist activity of anti-DR5 antibody with Tig-R in Jurkat cells, MTT
Assay type: cell-based, human
Description: Experiment 44: Agonist activity of […] anti-DR5 antibody with Tig-R in Jurkat cells Jurkat cells (Human Acute T-cell leukemia) were cultured in RPMI1640 medium with 10% FBS, antibiotics (Pen Strep) and L-Glutamine in a 37C, 5% CO2 incubator. Cells in log-growth phase (about 0.5 million cells per ml) were treated with antibody (AB) or/and Tig-R. The antibody is Human TRAIL R2/TNFRSF 10B Antibody from R&D (MAB631-100). Treatment time is 2 days. Inhibition of cell growth after treatment was determined by MTT assay.
Conditions for combination studies: Tig-R (2.5 ug/ml) was added together with AB (2-8 ng/ml). Cells

Substance: 24,28-O-Tigloyl-3β,16α, 21β, 22a, 24β, 28-hexahydroxyolean-12-ene [Tig-R]
- combined effect with anti-DR5 antibody (Jurkat, Tig-R 2.5 ug/ml): synergistic
- increase of inhibition with Tig-R (Tig-R 2.5 ug/ml added to antibody): about 20%
- inhibition of cell growth (Tig-R 2.5 ug/ml alone, 2 days): 8%
